{"source": "patent US20150157672A1", "about": "“KITS AND METHODS FOR SUSTAINED WEIGHT LOSS” (PHYTOLOGY LABS, INC., priority 2013, published 2015)", "key": {"[1]": {"test": "Estimated effect of first, second and third treatment phase (Tables 1-3)", "assay_type": "in vivo, human", "source_text": "In some embodiments the first treatment phase may comprise administering at least one weight loss agent. In some embodiments, the at least one weight loss agent is a protein kinase A modulator, a neurotransmitter modulator or a combination thereof. In some embodiments, the weight loss agents administered during this treatment phase are selected from Camellia sinensis, caffeine, Capsicum sp., 5-hydroxytryptophan, and any combination thereof. In yet other embodiments the first treatment phase comprises administering Camellia sinensis, caffeine, Capsicum sp., 5-hydroxytryptophan, or any combination thereof. […] In some embodiments, the second treatment phase comprises administering at least one weight loss agent. In some embodiments, the at least one weight loss agent is a macro nutrient absorption modulator, a neurotransmitter modulator or a combination thereof. In some embodiments, the at least one weight loss agent is selected from Phaseolus vulgaris, […] gabonensis, Rhodiola rosea, and any combination thereof. In yet other embodiments the second treatment phase comprises administering Phaseolus vulgaris, […] gabonensis, Rhodiola rosea, or any combination thereof. […] In some embodiments, the third treatment phase comprises administering at least one weight loss agent. In some embodiments, the at least one weight loss agent is a Protein Kinase A modulator, Adenosine Mono-Phosphate activated Kinase (AMPk) modulator, or a combination thereof. In some embodiments, the at least one weight loss agent is selected from Coffea canefora, Coleus forskholii, yohimbine, caffeine, and any combination thereof. In yet other embodiments, the third treatment phase comprises administering Coffea canefora, Coleus forskholii, yohimbine, caffeine, or any combination thereof."}, "[2]": {"test": "Rough point estimate of effect size by weight loss agent from published studies (Table 7)", "assay_type": "in vivo, human", "procedure": "A rough point estimate of the effect size by weight loss agent was developed using data from published studies.\nThe ΔWt. LossMAX for Garcinia sp. from 1.0 kg to 3.0 kg assumes the dose response curve model is valid, which has not been proven. The dosage of Phaseolus vulgaris is measured in α-amylase blocking units. Coffea canefora is administered as Syetol®, a commercial preparation most commonly used in the studies (400 mg). Crocus sativus dosages for depression are much lower 30 mg and have been shown for extracts of both stigma & leaf."}, "[3]": {"conditions": "when ingested; cited from earlier work"}, "[4]": {"conditions": "cited from earlier work; for thermogenic response: in man"}, "[5]": {"test": "Kinetic decay model of weight loss fitted to published clinical data (efficacy benchmarks)", "assay_type": "in vivo, human", "conditions": "for ΔWt. LossMAX: model parameter; for Decay Coeff. (−b): model Weight (t)=Weight Plateau+ΔWt. LossMAX e^-bt, across studies and doses", "source_text": "In order to better understand the underlying dynamics of weight loss agents over time, several weight loss agents were selected to study and attempt to model. These included a wide range of weight loss agents including dietary supplements (C. sinensis & alginate), OTC drugs (orlistat), and Rx drugs (sibutramine, Qysmia®). Over time, more may be added to the database to test hypotheses and to improve the modeling of the underlying weight loss dynamics.\nAll agents followed the same basic kinetic model: Weight (t)=Weight Plateau+ΔWt. LossMAX e-^bt, where Weight Plateau=Starting Weight−ΔWt. LossMAX. Where t=time, b=decay coefficient, and ΔWt. LossMAX=maximum amount of weight lost, which appears to be a function of weight loss agent, dosage, and patient population. […] It does appear to vary by weight loss agent. The variation within a weight loss agent appears to be fairly low. It is critical to note that these are only the initial observations based upon estimating the results using published data. The raw data, more observations, and a more sophisticated statistical analysis are needed in order to make more definitive claims. The fact that all weight loss agents seem to follow the same relationship supports the adaptation hypothesis. […] All of the observed data fit the model well. The decay coefficient was estimated to be 0.1±0.02, and all the studies except Rossner fell within one standard deviation of this mean. The decay coefficient for the Rossner study was 0.05, which is slightly more than two standard deviations from the mean. However, it is important to put this in context. The maximum difference between the model using 0.05 as the decay coefficient and 0.10 is about 2.0 kg, which falls within the observation error range. It is unclear whether this difference was due to random chance, to variation caused by the inherent error arising from estimating the data from the published graphs, or to something more fundamental. […] LossMAX for diabetic vs non-diabetic patients on orlistat. […] However, given the number of studies analyzed, it is premature to draw any definitive conclusions beyond that these are interesting data points from which a hypothesis can be generated. All of the observed data for Qysmia fit the model well, see FIG. 8. The decay coefficient was estimated to be 0.08±0.01. The decay coefficient was very consistent across all the studies and doses. Given these were registration studies, the larger sample sizes may have allowed for better resolution. The observed data for sibutramine also fit the model well. Since there were more studies, it was impractical to show them all in a graph. The decay coefficient was estimated to be 0.14±0.04. Sibutramine offered the widest number of conditions studied, and as expected, there was more variability in the decay coefficient."}, "α2-adrenergic receptor": {"tested_on": "α2-adrenergic receptor", "conditions": "functions as an antagonist; cited from earlier work"}, "α1-receptor": {"tested_on": "α1-receptor", "conditions": "functions as an antagonist; cited from earlier work"}, "[6]": {"test": "Systematic review and meta-analysis of randomized clinical trials of Garcinia extract (HCA) with dose-response curve", "assay_type": "in vivo, human", "conditions": "curve ΔWt=ΔWtmax(1−e^−b*dosage)", "source_text": "A systematic review and meta-analysis to examine the efficacy of Garcinia extract, hydroxycitric acid (HCA) as a weight reduction agent, using data from randomized clinical trials, found a small, statistically significant difference in weight loss of -0.9 kg between HCA and placebo. A nonlinear, significant (P<0.05) correlation between the dosage of HCA and body weight loss seems to exist. This relationship follows a curve ΔWt=Δ[…]) which is consistent with a first order ligand binding kinetics. […] However, HCA quickly approaches its asymptotic maximum by 2800 mg/day."}, "[7]": {"conditions": "FIG. 2; cited from earlier work"}}, "note": "Where two headings read alike, the source gives them in different places.", "data": [{"smiles": "N[C@@H](Cc1c[nH]c2ccc(O)cc12)C(=O)O", "note": "[5-hydroxytryptophan]", "values": [{"measurement": "Estimated kcal/day reduction", "setting": "[1]; first treatment phase", "result": 240, "unit": "kcal/day"}, {"measurement": "Estimated ΔWt. LossMAX", "setting": "[1]; first treatment phase", "result": "1.5 to 2.5", "unit": "kg"}, {"measurement": "Kcal/d", "setting": "[2]; Dosage 50-900 mg oral", "result": 400, "unit": "kcal/day"}, {"measurement": "Kg./wk", "setting": "[2]; Dosage 50-900 mg oral", "result": 0.2, "unit": "Kg./wk"}, {"measurement": "ΔWt. LossMAX", "setting": "[2]; Dosage 50-900 mg oral", "result": "1.5 to 2.5", "unit": "kg"}, {"measurement": "adverse effects", "setting": "[3]", "result": "nausea and diarrhea"}, {"measurement": "reduction in energy intake", "setting": "[4]; spontaneous reduction of calorie consumption", "result": "about 243 Kcal/day"}]}, {"smiles": "CCCCCCCCCCC[C@@H](C[C@@H]1OC(=O)[C@H]1CCCCCC)OC(=O)[C@H](CC(C)C)NC=O", "note": "[Orlistat, orlistat]", "values": [{"measurement": "ΔWt. LossMAX", "setting": "[5]; Dosage 120 mg (diabetics)", "result": 4.3, "unit": "kg"}, {"measurement": "ΔWt. LossMAX", "setting": "[5]; Dosage 120 mg", "result": 7.1, "unit": "kg"}, {"measurement": "decay coefficient", "setting": "[5]; Rossner study", "result": 0.05}, {"measurement": "Decay Coeff. (−b)", "setting": "[5]", "result": "0.11 ± 0.02"}, {"measurement": "Decay Coeff. (−b)", "setting": "[5]; listed as orlistat", "result": "0.1±0.02"}]}, {"smiles": "CC(C)CC(N(C)C)C1(c2ccc(Cl)cc2)CCC1", "note": "(centres unmarked) [Sibutramine, sibutramine]", "values": [{"measurement": "ΔWt. LossMAX", "setting": "[5]; Dosage 1 mg", "result": 3.7, "unit": "kg"}, {"measurement": "ΔWt. LossMAX", "setting": "[5]; Dosage 5 mg", "result": 4.5, "unit": "kg"}, {"measurement": "ΔWt. LossMAX", "setting": "[5]; Dosage 10 mg", "result": 8.4, "unit": "kg"}, {"measurement": "ΔWt. LossMAX", "setting": "[5]; Dosage 15 mg", "result": 7.3, "unit": "kg"}, {"measurement": "ΔWt. LossMAX", "setting": "[5]; Dosage 20 mg", "result": 8.5, "unit": "kg"}, {"measurement": "ΔWt. LossMAX", "setting": "[5]; Dosage 30 mg", "result": 9.1, "unit": "kg"}, {"measurement": "Decay Coeff. (−b)", "setting": "[5]", "result": "0.14 ± 0.04"}, {"measurement": "Decay Coeff. (−b)", "setting": "[5]; listed as sibutramine", "result": "0.14±0.04"}]}, {"smiles": "COC(=O)[C@@H]1[C@H]2C[C@H]3c4[nH]c5ccccc5c4CCN3C[C@@H]2CC[C@@H]1O", "note": "[yohimbine]", "values": [{"measurement": "Estimated kg/wk reduction", "setting": "[1]; third treatment phase", "result": 0.1, "unit": "kg/wk"}, {"measurement": "Estimated ΔWt. LossMAX", "setting": "[1]; third treatment phase", "result": 1.5, "unit": "kg"}, {"measurement": "Kg./wk", "setting": "[2]; Dosage 20 mg/day", "result": "0-0.16 Kg./wk"}, {"measurement": "ΔWt. LossMAX", "setting": "[2]; Dosage 20 mg/day", "result": "0 to 1.5", "unit": "kg"}, {"measurement": "affinity for the α2-adrenergic receptor", "setting": "α2-adrenergic receptor", "result": "high affinity"}, {"measurement": "affinity for the α1-receptor", "setting": "α1-receptor", "result": "moderate affinity"}]}, {"smiles": "O=C(O)CC(O)(C(=O)O)C(O)C(=O)O", "note": "(centres unmarked) [HCA, hydroxycitric acid]", "values": [{"measurement": "ΔWtmax", "setting": "[6]", "result": "about 3.5 kg"}]}, {"smiles": "CC(C)(N)Cc1ccccc1", "note": "[Phentermine]", "values": [{"measurement": "time to reduction or complete cessation of weight loss", "setting": "[7]", "result": "about 4 weeks"}]}, {"smiles": "Cn1c(=O)c2c(ncn2C)n(C)c1=O", "note": "[caffeine]", "values": [{"measurement": "Estimated kcal/day reduction", "setting": "[1]; first treatment phase", "result": 60, "unit": "kcal/day"}, {"measurement": "Estimated ΔWt. LossMAX", "setting": "[1]; first treatment phase", "result": 0.5, "unit": "kg"}, {"measurement": "Estimated kg/wk reduction", "setting": "[1]; third treatment phase", "result": 0.05, "unit": "kg/wk"}, {"measurement": "Estimated ΔWt. LossMAX", "setting": "[1]; third treatment phase", "result": 0.5, "unit": "kg"}, {"measurement": "Kcal/d", "setting": "[2]; Dosage 500-700 mg/day", "result": "50 to 75", "unit": "kcal/day"}, {"measurement": "raise of energy expenditure", "setting": "[4]; 600 mg/day dose", "result": 63, "unit": "kcal/day"}, {"measurement": "thermogenic response", "setting": "[4]; dose 100 mg", "result": "4-5%"}, {"measurement": "thermogenic response", "setting": "[4]; dose 200-250 mg", "result": "10-12%"}, {"measurement": "thermogenic response", "setting": "[4]; dose 400-450 mg", "result": 16, "unit": "%"}, {"measurement": "minimum (or near minimum) dose with demonstrable stimulatory effect on resting metabolic rate (RMR)", "setting": "[4]; in vivo", "result": 100, "unit": "mg"}]}]}
